“Also recorded” adds a separate entry of the source. Marks after values point to notes of the source that are not given here.
How the values were obtained:
[1] = test system: patients with chronic lymphocytic leukemia; experiment: Phase I dose-escalation of low-dose subcutaneous cladribine: clinical response and toxicity; assay type: in vivo, human
Description: Additional inclusion criteria included: KPS>70%, absolute neutrophil count >1500/μl, platelet count >100,000/μl, creatinine <2.0 mg/dl, normal liver function tests, no evidence of active infections on chest x-ray or urinalysis, and no concurrent chemotherapy or radiation therapy within 4 weeks of registration. Each patient signed an informed consent form approved by the University of Utah institutional review board, Clinical Cancer Investigation Committee, and Salt Lake City Veterans Administration Medical Center (SLC VAMC) Research and Development office.
The study accrued three patients from the VAMC and two patients from the Huntsman Cancer Institute at the University of Utah from January to May 2005. The patients were given three consecutive subcutaneous injections of cladribine (Leustatin) once every 28-32 days, starting at a dose of 0.05 mg per kg per day. The primary endpoint of the study was to find the dose of cladribine which caused a 20% decrease in global DNA methylation. Each patient served as their own control, and was dose-escalated every 28-32 days by 0.01 mg per kg per day if the primary endpoint was not met. Patients were given prophylactic doses of trimethoprim/sulfamethoxazole for the prevention of pneumocystis carinii. Patients allergic to trimethoprim/sulfamethoxazole were prescribed prophylactic doses of dapsone. No clinical endpoints were written into the study initially. […] A clinical response was defined by the NCI-sponsored working group for CLL. (See Cheson et al., BLOOD (1996) 87:4990-97). A patient was considered to have completed the study when the total white blood count was less than 10,000 cells/μl after two consecutive weekly blood counts. The entire study was conducted at the University of Utah General Clinical Research Center (GCRC). Leustatin was provided to the patients by Tibotec Therapeutics, a division of Johnson and Johnson.
Five patients with CLL were given subcutaneous injections of cladribine (Leustatin, provided by Tibotec Therapeutics) on three consecutive days at 28-32 day intervals, starting at a dose of 0.05 mg/kg/day, approximately ⅓ of the recommended therapeutic dose. {Juliusson, 1993 #10; Juliusson, 1996 #11} Five patients with a confirmed diagnosis of CLL (Table 3) participated in an Institutional Review Board-approved protocol between January and May 2005 after informed consent was obtained. […] Inclusion criteria included: KPS>70%, absolute neutrophil count >1500/μL, platelet count >100,000/μL, creatinine <2.0 mg/dL, normal liver function tests, no evidence of active infections, and no concurrent chemotherapy or radiation therapy within 4 weeks of registration.

global DNA methylation [2] = experiment: Global DNA methylation (HPLC of digested genomic DNA) before and after low-dose cladribine; assay type: in vivo, human
[3] = test system: histone 3 (H3) methylation in CLL cells; experiment: Histone methylation immunofluorescence of CLL cells after low-dose cladribine; assay type: in vivo, human
Description: The DNA and the mononuclear cells from the buffy coat were stored from the majority of patient samples. DNA was used for global DNA methylation studies and the mononuclear cells from the buffy coat were used to measure changes in H3 methylation by immunofluorescence before and after treatment.
3×10^4 CLL cells were mounted onto a slide by cytospin at 800 rpm for 3 minutes. They were then fixed in 95% ethanol/5% acetic acid for 10 minutes, followed by incubation in 0.25 M sodium butyrate for 24 hours at room temperature. The slides were stained by the Ventana automated immunostainer at 40° C. The slides were first stained with the primary antibody (1:50) for 32 minutes, followed by staining with the secondary antibody (sheep or rabbit IgG-FITC) (1:200) for 32 minutes. Slides were counterstained with DAPI (1:100) for 1 minute and hematoxylin (Ventana Medical Systems) for 4 minutes. Fluorescent detection was performed with the IView DAB detection kit (Ventana Medical Systems). Intensity of fluorescence was quantitated by a wide field fluorescent microscope and quantified by the Openlab modular imaging software. Signal to noise was optimized by the software.
A histone methylation assay that uses immunofluorescence to assess for histone methylation patterns after treatment with low-doses of cladribine was developed. […] These states are associated with transcription silencing. (See Jaskelioff et al., Nat. Cell. Biol. (2003) 5:395-99). In FIG. 4, an average of 100 cells was quantitated in the fluorescence intensity at each time point. The asterisk corresponds to days of treatment with cladribine. The error bars at each time point refer to the range of antibody staining in all cells. […] Multiparametric flow cytometry may be utilized to analyze further which subset of CLL cells respond to low doses of drugs.

HT-29 cells = experiment: DNA microarray analysis of gene re-expression after Cladribine; assay type: cell-based; conditions: HT-29 colon cancer cell line
Description: Lymphocytes are inclubated with 0-3 μM Cladribine.
Total RNA is isolated with RNeasy mini kits (Qiagen) from samples treated with Cladribine or vehicle. Approximately 1 μg may be amplified using Message Amp kits (Ambion). In replicate experiments, DNA from the vehicle or treated samples may be variably labeled with Cy-3 and Cy-5 dye and two microarray experiments may be performed for each dye-orientation. The utilized microarray slides consist of 9600 genes from the Research Genetics 40k sequence-verified human clone set. Each sample is deposited in duplicate, with a Lucidea (Amersham) robotic spotter. After hybridization, the microarray slides are scanned with an Axon scanner, and data quantified using Imagene and GeneSight software. The local background is subtracted. Data points with no signal, high background, or spot asymmetry are eliminated. Genes with low expression and low signal intensity are adjusted to a minimal raw value of 5 to avoid unwarranted mathematical distortions due division by decimals <<1. After calculating the ratio of the Cy5/Cy3 fluorescence signal intensity for each gene, data is normalized relative to the mean intensity from all genes. […] Data is analyzed with Spotfire software for statistical and hierarchical cluster analysis using an unweighted pair-group method with arithmetic mean with a Euclidean distance metric.

[4] = test system: miRNA expression in patients with CLL; experiment: miRNA expression profile (Taqman real-time PCR) before and after DNA methylation inhibitor; assay type: in vivo, human; conditions: for Changes in bcl-2, p53, mir-15, mir-16: after treatment; for miR-34a and miR-195 expression: patients with decreased lymphocytosis following drug treatment; for Expression of mir-17-3p, mir-21, mir-29a/b/c, mir-30e, mir-104, mir-126, mir-128a, mir-130a, mir-141, mir-142-3p, mir-148a, mir-151, mir-199a, mir-199a*, mir-301: real-time PCR, Early Access Human Panel; for microRNA expression after treatment: six patients on 5-azacytidine, one patient on 2-chloro-2-deoxyadenosine
Description: The DNA MI was measured in each patient before and after treatment with low dose cladribine.
(§1) Patients with CLL not in immediate need for cytoreductive therapy are enrolled on a dose-escalation study of low-dose 5-azacytidine (Vidaza, provided by the Pharmion Corporation.) Patients must have a KPS greater than 70%, white blood cell count greater than 20,000/μL hemoglobin >8 g/dL, platelet count >50,000/μL, normal liver, and renal functions. The study was carried out in 2 stages using a modification of the design proposed by Storer. {Storer, 1989 #16} In the first stage, patients were enrolled as single patient cohorts until either at least a 20% DNA MI inhibition or a greater than grade II toxicity. This allowed us to get closer to the target biologically effective dose before enrolling three patient cohorts. The global DNA MI and the miRNA expression profile of 6 patients before and after 5-azacytidine in the patients in the first stage of the study protocol was determined. Patients received 10-70 mg/m^2/day on days 1-3 and days 8-10.
Total RNA is extracted with Trizol, as previously described. {O'Donnell, 2005 #182} MiRNA expression was determined using the Applied Biosystems Taqman MicroRNA Assays Human Panel Early Access Kit. 10 ηg of RNA is used for each sample. cDNA is made using a looped RT primer provided by the kit. A 1 to 5 dilution of the cDNA is used for each sample and used for quantitative PCR on the ABI 7900HT Fast Real-Time PCR System. MiRNA-specific forward and reverse primers were provided in plates A and B. MiR-16 and let-7a served as positive controls while let-2 served as a negative control for human samples. Each miRNA were performed in quadriplicates. The miRNA expression was determined for CD5^+B-lymphocytes obtained from pediatric tonsils and from B-lymphocytes of 5 healthy controls.
Two different DNA methylation inhibitors were studied with respect to re-expression of microRNA: a DNA methyltransferase enzyme inhibitor, 5-azacytidine, and a methyl substrate inhibitor, 2-chloro-2-deoxyadenosine. […] Mir-17-3p and mir-21 have anti-apoptotic properties.

patients with CLL = experiment: Dose-escalation study of low-dose 5-azacytidine: toxicity; assay type: in vivo, human
Description: as §1

global DNA methylation [5] = experiment: Global DNA MI (HPLC) before and after low-dose 5-azacytidine; assay type: in vivo, human
global DNA methylation [6] = experiment: Global methylation analysis after continuous infusion Decitabine; assay type: in vivo, human; conditions: patients treated with Decitabine
Description: All patients were treated with continuous infusion Decitabine given intravenously in an inpatient setting. […] The method for assessing DNA methylation was consistent and reproducible (Samlowski et al. Manuscript submitted to JCO).

[7] = low-dose cladribine s.c., 5 CLL patients
[8] = low-dose cladribine, 5 patients
[9] = CLL cells after low dose cladribine

Structure (SMILES): Nc1nc(Cl)nc2c1ncn2[C@H]1C[C@H](O)[C@@H](CO)O1 [cladribine, 2-chlorodeoxyadenosine]
- Hemoglobin change over the course of the study ([1]; Patient 1): did not exhibit a decrease in hemoglobin
- Toxicities overall ([1]; low-dose cladribine 0.05-0.09 mg per kg per day): without toxicities
- Clinical response (NCI-sponsored working group) ([1]; low-dose cladribine 0.05-0.09 mg per kg per day, 3 days every 28 days): induce a clinical response in some patients; also recorded: partial response; also recorded: Three out of the five
- CR (number of patients) [1, 7]: 0
- PD (number of patients) [1, 7]: 1
- PR duration [1, 7]: 5 months
- Hematologic toxicities Grade III/IV (number of patients) [1, 8]: Grade III/IV (0)
- Non-hematologic toxicities Grade I/II (number of patients) [1, 8]: Grade I/II (2)*
- Non-hematologic toxicities Grade III/IV (number of patients) [1, 8]: Grade III/IV (0)
- Non-hematologic toxicities observed (adverse events) ([1]; low-dose cladribine, events in patient 4): Two grade II non-hematologic toxicities; also recorded: grade II lymphadenitis; also recorded: second grade II infection, a community-acquired pneumonia
- Decrease in lymphocyte count by 50% (time) ([1]; mean of the 5 patients on trial, range 8-67 days): 48 days (8-67 days)**
- Hemoglobin ([1]; mean of the 5 patients on trial, range 12.1-16 g/dL): 14.6 g/dL (12.1-16 g/dL)**
- Platelet count ([1]; mean of the 5 patients on trial, range 133-438k/μL): 224k/μL (133-438k/μL)**
- Reduction in circulating leukemia cells ([1]; patient 1, dose escalation): did not demonstrate a reduction in circulating leukemia cells until the third dose escalation of 0.07 mg per kg per day
- Outcome of patient 3 (previously treated) ([1]; patient 3, higher baseline global DNA methylation): progressive disease; also recorded: progression with a gradually increasing white blood count
- White blood cell count change ([1]; patient 5, first dose 0.05 mg per kg per day): dramatic reduction in white blood cell count
- Reduction in white blood cell count ([1]; patients 1, 2, 4 and 5 after low dose cladribine): ≥ 50%
- Global decrease of DNA methylation after treatment (global DNA methylation [2]; 6 out of 7 patients, pooled with the six 5-azacytidine patients): 8%
- Effect on global DNA methylation (global DNA methylation [2]; low-dose cladribine): modest response; also recorded: not an effective DNA methylation inhibitor; also recorded: minimal inhibition in global DNA methylation
- H3 dimethylated lysine 9 immunofluorescence [3, 9]: Little change
- H3 monomethylated lysine 4 immunofluorescence [3, 9]: decreased to levels akin to signal intensity obtained from total histone 3; also recorded: decrease transiently
- H3 monomethylated lysine 9 immunofluorescence [3, 9]: increase and rise
- H3 phospho-serine 10 immunofluorescence [3, 9]: decrease and rise
- H3 trimethylated lysine 9 immunofluorescence [3, 9]: increase in trimethylated lysine 9 approximately 1 week later and increase and rise
- Total histone 3 immunofluorescence ([3]; patient 4, 0.05 mg per kg per day cladribine): minimal changes
- Re-expression of silenced genes (DNA microarray) (HT-29 cells): re-expression of silenced genes in HT-29 cells
- Changes in bcl-2, p53, mir-15, mir-16 [4]: No changes
- miR-34a and miR-195 expression [4]: upregulated
- Expression of mir-17-3p, mir-21, mir-29a/b/c, mir-30e, mir-104, mir-126, mir-128a, mir-130a, mir-141, mir-142-3p, mir-148a, mir-151, mir-199a, mir-199a*, mir-301 [4]: consistent microRNA upregulation
- microRNA expression after treatment [4]: Increased microRNA expression

Structure (SMILES): Nc1ncn([C@@H]2O[C@H](CO)[C@@H](O)[C@H]2O)c(=O)n1 [5-azacytidine]
- Toxicity (patients with CLL; 5th patient, 60 mg/m^2/day): grade II thrombocytopenia and anemia
- Toxicity (patients with CLL; the other patients, 10-70 mg/m^2/day): No other toxicities were observed
- Global decrease of DNA methylation after treatment (global DNA methylation [5]; 6 out of 7 patients, pooled with the 2-chloro-2-deoxyadenosine patient): 8%
- Decrease in global DNA MI (global DNA methylation [5]; four out of the 6 patients, low-dose 5-azacytidine): ~10%
- Change in global DNA MI (global DNA methylation [5]; patients 2 and 4, low-dose 5-azacytidine): No change
- Changes in bcl-2, p53, mir-15, mir-16 [4]: No changes
- miR-34a and miR-195 expression [4]: upregulated
- Expression of mir-17-3p, mir-21, mir-29a/b/c, mir-30e, mir-104, mir-126, mir-128a, mir-130a, mir-141, mir-142-3p, mir-148a, mir-151, mir-199a, mir-199a*, mir-301 [4]: consistent microRNA upregulation
- microRNA expression after treatment [4]: Increased microRNA expression

Structure (SMILES): Nc1ncn([C@H]2C[C@H](O)[C@@H](CO)O2)c(=O)n1 [Decitabine, 5-aza-2-deoxycytidine]
- Decrease in global DNA methylation level achievable (global DNA methylation [6]): ≥ 20%
